Data from US9265773B2, “Tetracyclic heterocycle compounds and methods of use thereof for the treatment of viral diseases” (priority 2011, dated 2016).

Tests used:
HCV replicon genotype 1b = experiment: microbe, parasite or virus in culture; format: cell-based; conditions: genotype 1b replicon cells, incubated 96 hours, NS3/4A ELISA readout
HCV replicon genotype 1a = experiment: microbe, parasite or virus in culture; format: cell-based; conditions: genotype 1a replicon cells, incubated 96 hours, NS3/4A ELISA readout

SMILES | IC50 (HCV replicon genotype 1b; Hepatitis C virus, 96 h) [nM] | IC50 (HCV replicon genotype 1a; Hepatitis C virus, 96 h) [nM] | IC50 (HCV replicon genotype 1b) [nM] | IC50 (HCV replicon genotype 1a) [nM]
CNC(=O)c1c(-c2ccc(F)cc2)oc2cc(N(C)S(C)(=O)=O)c(-c3nc4c(cc3C)OCn3c-4cc4c(F)cccc43)cc12 [Compound 32] | 19 | 5.7 |  | 
CNC(=O)c1c(-c2ccc(F)cc2)oc2cc(N(C)S(C)(=O)=O)c(-c3ccc4c(n3)-c3cc5c(F)cccc5n3C(COC(=O)[C@@H]3CCCN3C(=O)OC)O4)cc12 (stereo partly shown) [Compound 104] | 4.8 | 2.4 |  | 
CNC(=O)c1c(-c2ccc(F)cc2)oc2cc(N3CCCC3=O)c(-c3ncc4c(n3)-c3cc5c(F)cccc5n3CO4)cc12 [Compound 170] | 13 | 54 |  | 
CNC(=O)c1c(-c2ccc(F)cc2)oc2cc(N(C)S(C)(=O)=O)c(-c3ccc4c(n3)-c3cc5c(F)cccc5n3C3(COC3)O4)cc12 [Compound 97] | 4.4 | 2.9 |  | 
CNC(=O)c1c(-c2ccc(F)cc2)oc2cc(N(C)S(C)(=O)=O)c(-c3ccc4c(n3)-c3cc5c(F)cccc5n3C(C)(CO)O4)cc12 (stereo not shown) [Compound 91] | 7.4 | 3.3 |  | 
CNC(=O)c1c(-c2ccc(F)cc2)oc2cc(N(C)S(C)(=O)=O)c(-c3ccc4c(n3)-c3cc5cc(F)ccc5n3CO4)cc12 [Compound 3] | 3.7 | 2 |  | 
CNC(=O)c1c(-c2ccc(F)cc2)oc2cc(N(C)S(C)(=O)=O)c(-c3ccc4c(n3)-c3cc5cccc(C#N)c5n3CO4)cc12 [Compound 18] | 5.4 | 9.2 |  | 
CNC(=O)c1c(-c2ccc(F)cc2)oc2cc(N(C)S(C)(=O)=O)c(-c3ccc4c(n3)-c3cc5c(F)cccc5n3C(CN(C)C)O4)cc12 (stereo not shown) [Compound 122, 5-(6-((dimethylamino)methyl)-11-fluoro-6H-pyrido[2′,3′:5,6][1,3]oxazino[3,4-a]indol-2-yl)-2-(4-fluorophenyl)-N-methyl-6-(N-methylmethylsulfonamido)benzofuran-3-carboxamide] |  |  | 5.2 | 5.1
CNC(=O)c1c(-c2ccc(F)cc2)oc2cc(N(CC(F)F)S(C)(=O)=O)c(-c3ccc4c(n3)-c3cc5c(F)cccc5n3CO4)cc12 [Compound 184, 6-(N-(2,2-difluoroethyl)methylsulfonamido)-5-(11-fluoro-6H-pyrido[2′,3′:5,6][1,3]oxazino[3,4-a]indol-2-yl)-2-(4-fluorophenyl)-N-methylbenzofuran-3-carboxamide] | 6.5 | 8.4 |  | 
CNC(=O)c1c(-c2ccc(F)cc2)oc2cc(N(C)S(C)(=O)=O)c(-c3ccc4c(n3)-c3cc5c(F)cncc5n3CO4)cc12 [Compound 46, 5-(11-fluoro-6H-pyrido[2,3-e]pyrido[4′,3′:4,5]pyrrolo[1,2-c][1,3]oxazin-2-yl)-2-(4-fluorophenyl)-N-methyl-6-(N-methylmethylsulfonamido)benzofuran-3-carboxamide] | 2.1 | 1.5 |  | 
CCOC(=O)C(O)c1c2n(c3cccc(F)c13)COc1ccc(-c3cc4c(C(=O)NC)c(-c5ccc(F)cc5)oc4cc3N(C)S(C)(=O)=O)nc1-2 (stereo not shown) [Compound 206, ethyl 2-(11-fluoro-2-(2-(4-fluorophenyl)-3-(methylcarbamoyl)-6-(N-methylmethylsulfonamido)benzofuran-5-yl)-6H-pyrido[2′,3′:5,6][1,3]oxazino[3,4-a]indol-12-yl)-2-hydroxyacetate] | 23 | 15 |  | 
CNC(=O)c1c(-c2ccc(F)cc2)oc2cc(N(C)S(C)(=O)=O)c(-c3ccc4c(n3)-c3c(F)c5ccccc5n3CO4)cc12 [Compound 58, 5-(12-fluoro-6H-pyrido[2′,3′:5,6][1,3]oxazino[3,4-a]indol-2-yl)-2-(4-fluorophenyl)-N-methyl-6-(N-methylmethylsulfonamido)benzofuran-3-carboxamide] | 8.7 | 13 |  | 
CNC(=O)c1c(-c2ccc(F)cc2)oc2cc(N(C)S(C)(=O)=O)c(-c3ccc4c(n3)-c3cc5c(F)cccc5n3C(CN)O4)cc12 (stereo not shown) [Compound 114, 5-(6-(aminomethyl)-11-fluoro-6H-pyrido[2′,3′:5,6][1,3]oxazino[3,4-a]indol-2-yl)-2-(4-fluorophenyl)-N-methyl-6-(N-methylmethylsulfonamido)benzofuran-3-carboxamide] | 18 | 7.3 |  | 
CNC(=O)c1c(-c2ccc(F)cc2)oc2cc(N(CCCF)S(C)(=O)=O)c(-c3ncc4c(n3)-c3cc5ccccc5n3CO4)cc12 [Compound 197] | 4.4 | 2.6 |  | 
CNC(=O)c1c(-c2ccc(F)cc2)oc2cc(CN)c(-c3ccc4c(n3)-c3cc5c(F)cccc5n3CO4)cc12 [Compound 181] | 14 | 13 |  | 
CNC(=O)c1c(-c2ccc(F)cc2)oc2cc(N(C)S(C)(=O)=O)c(-c3ccc4c(c3)-c3[nH]c5ccccc5c3C(C(C)(C)C)O4)cc12 (stereo not shown) [Compound 64] | 44 | 71 |  | 

SMILES | IC50 (HCV replicon genotype 1b; Hepatitis C virus, 96 h) [nM] | IC50 (HCV replicon genotype 1a; Hepatitis C virus, 96 h) [nM] | IC50 (HCV replicon genotype 1b) [nM] | IC50 (HCV replicon genotype 1a) [nM]
CNC(=O)c1c(-c2ccc(F)cc2)oc2cc(N(C)S(C)(=O)=O)c(-c3ccc4c(c3)-c3cc5ccccc5n3CC(C)(O)CO4)cc12 (stereo not shown) [Compound 78, 2-(4-fluorophenyl)-5-(7-hydroxy-7-methyl-7,8-dihydro-6H-benzo[2,3][1,5]oxazocino[5,4-a]indol-2-yl)-N-methyl-6-(N-methylmethylsulfonamido)benzofuran-3-carboxamide] | 3.5 | 5.7 |  | 
CNC(=O)c1c(-c2ccc(F)cc2)oc2cc(N(C)S(C)(=O)=O)c(-c3ccc4c(n3)-c3cc5c(CN)cccc5n3CO4)cc12 [Compound 68] | 19 | 60 |  | 
CNC(=O)c1c(-c2ccc(F)cc2)oc2cc(N(CC(F)F)S(C)(=O)=O)c(-c3ncc4c(n3)-c3cc5c(F)cccc5n3CO4)cc12 [Compound 186] | 7.6 | 4.4 |  | 
CNC(=O)c1c(-c2ccc(F)cc2)oc2cc(N(C)S(C)(=O)=O)c(-c3ccc4c(n3)-c3cc5c(F)cccc5n3C(C(N)=O)O4)cc12 (stereo not shown) [Compound 106, 11-fluoro-2-(2-(4-fluorophenyl)-3-(methylcarbamoyl)-6-(N-methylmethylsulfonamido)benzofuran-5-yl)-6H-pyrido[2′,3′:5,6][1,3]oxazino[3,4-a]indole-6-carboxamide] |  |  | 2.4 | 5.5
CNC(=O)c1c(-c2ccc(F)cc2)oc2cc(N(C)S(C)(=O)=O)c(-c3ccc4c(n3)-c3cc5nc(OC)ccc5n3CO4)cc12 [Compound 45, 2-(4-fluorophenyl)-5-(10-methoxy-6H-pyrido[2,3-e]pyrido[2′,3′:4,5]pyrrolo[1,2-c][1,3]oxazin-2-yl)-N-methyl-6-(N-methylmethylsulfonamido)benzofuran-3-carboxamide] | 11 | 9.2 |  | 
CNC(=O)c1c(-c2ccc(F)cc2)oc2cc(N(C)S(C)(=O)=O)c(-c3ccc4c(n3)-c3cc5c(F)cccc5n3C(C(=O)NC)O4)cc12 (stereo not shown) [Compound 110] |  |  | 4.8 | 3
CNC(=O)c1c(-c2ccc(F)cc2)oc2cc(N(C)S(C)(=O)=O)c(-c3ccc4c(n3)-c3cc5c(F)cccc5n3C(CO)O4)cc12 (stereo not shown) [Compound 87, 5-(11-fluoro-6-(hydroxymethyl)-6H-pyrido[2′,3′:5,6][1,3]oxazino[3,4-a]indol-2-yl)-2-(4-fluorophenyl)-N-methyl-6-(N-methylmethylsulfonamido)benzofuran-3-carboxamide] | 3.3 | 3 |  | 
CNC(=O)c1c(-c2ccc(F)cc2)oc2cc(N(C)S(C)(=O)=O)c(-c3ccc4c(n3)-c3cc5c(CO)cccc5n3CO4)cc12 [Compound 72, 2-(4-fluorophenyl)-5-(11-(hydroxymethyl)-6H-pyrido[2′,3′:5,6][1,3]oxazino[3,4-a]indol-2-yl)-N-methyl-6-(N-methylmethylsulfonamido)benzofuran-3-carboxamide] | 9 | 52 |  | 
CNC(=O)c1c(-c2ccc(F)cc2F)oc2cc(N(C)S(C)(=O)=O)c(-c3ccc4c(n3)-c3cc5c(F)cccc5n3CO4)cc12 [Compound 147, 2-(2,4-difluorophenyl)-5-(11-fluoro-6H-pyrido[2′,3′:5,6][1,3]oxazino[3,4-a]indol-2-yl)-N-methyl-6-(N-methylmethylsulfonamido)benzofuran-3-carboxamide] | 6.9 | 9 |  | 
CNC(=O)c1c(-c2ccc(F)cc2)oc2cc(N(C)S(C)(=O)=O)c(-c3ccc4c(c3)-c3cc5ccccc5n3CC(O)CO4)cc12 (stereo not shown) [Compound 75, 2-(4-fluorophenyl)-5-(7-hydroxy-7,8-dihydro-6H-benzo[2,3][1,5]oxazocino[5,4-a]indol-2-yl)-N-methyl-6-(N-methylmethylsulfonamido)benzofuran-3-carboxamide] | 2.6 | 2.8 |  | 
CNC(=O)c1c(-c2ccc(F)cc2F)oc2cc(N(C)S(C)(=O)=O)c(-c3ncc4c(n3)-c3cc5c(F)cccc5n3CO4)cc12 [Compound 149] | 2.2 | 1.2 |  | 
CNC(=O)c1c(-c2ccc(F)cc2F)oc2cc(N(C)S(C)(=O)=O)c(-c3ccc4c(n3)-c3cc5ccccc5n3CO4)cc12 [Compound 148] | 4.6 | 2.8 |  | 
CNC(=O)c1c(-c2ccc(F)cc2)oc2cc(N(CCCF)S(C)(=O)=O)c(-c3ccc4c(n3)-c3cc5c(F)cccc5n3CO4)cc12 [Compound 192] | 7.1 | 4.6 |  | 
CNC(=O)c1c(-c2ccc(F)cc2)oc2cc(N(C)S(C)(=O)=O)c(-c3ccc4c(n3)-c3cc5c(F)cccc5n3C(COC)O4)cc12 (stereo not shown) [Compound 95] | 5.3 | 3.2 |  | 
CNC(=O)c1c(-c2ccc(F)cc2)oc2cc(N3CCC3=O)c(-c3ccc4c(n3)-c3cc5c(F)cccc5n3CO4)cc12 [Compound 176] | 8.8 | 7.9 |  | 
CNC(=O)c1c(-c2ccc(F)cc2)oc2cc(N(C)S(C)(=O)=O)c(-c3ccc4c(n3)-c3cc5c(F)cccc5n3C(CN)O4)cc12 (stereo not shown) [Compound 115, 5-(6-(aminomethyl)-11-fluoro-6H-pyrido[2′,3′:5,6][1,3]oxazino[3,4-a]indol-2-yl)-2-(4-fluorophenyl)-N-methyl-6-(N-methylmethylsulfonamido)benzofuran-3-carboxamide] |  |  | 19 | 8.9
